Patent US20140309265A1, “MACROCYCLIC COMPOUNDS FOR INHIBITION OF INHIBITORS OF APOPTOSIS” (Ensemble Therapeutics, priority 2011, published 2014)
Like-named read-outs stand apart in the source and are kept apart here.

Legend:
Format in all cases: binding
[1] = target: T1, XIAP His-BIR2 (124-240/C202A/C213G) (Homo sapiens, UniProt P98170, C202A/C213G); assay: XIAP-BIR2/SMAC Peptide AlphaScreen Assay
T1 construct: additions of His-BIR2 (124-240/C202A/C213G), Biotinylated SMAC peptide
Description: A. XIAP-BIR2/SMAC Peptide AlphaScreen Assay Assays were performed in white, flat-bottom, 384-well ProxiPlates (Perkin Elmer). […] The reaction was incubated at room temperature for 60 minutes. After 60 minutes, 2.5 μL of Alphascreen detection reagent (Perkin Elmer) was added to the reaction mixture and incubated at room temperature in the dark for 120 minutes. The Alphascreen signal generated by the reaction was detected on the Envision Plate Reader. […] Compounds were dissolved at 10 mM in dimethylsulfoxide (DMSO) and evaluated at eleven concentrations. IC50 values were derived by non-linear regression analysis.

[2] = target: N-His-Tb-BIR3(241-356, XIAP) (Homo sapiens, UniProt P98170); assay: XIAP-BIR3 SMAC Peptide Fluorescence Polarization Assay (FPA)
Sequence of N-His-Tb-BIR3(241-356, XIAP) (P98170 241-356): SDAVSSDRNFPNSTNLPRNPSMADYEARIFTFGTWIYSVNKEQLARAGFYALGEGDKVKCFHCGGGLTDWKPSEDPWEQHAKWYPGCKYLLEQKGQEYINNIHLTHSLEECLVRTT

[3] = target: N-His-Tb-BIR3(262-352, cIAP1) (Homo sapiens, UniProt Q13490); assay: cIAP1-BIR3 SMAC Peptide Fluorescence Polarization Assay (FPA); conditions: Table 3
Sequence of N-His-Tb-BIR3(262-352, cIAP1) (Q13490 262-352): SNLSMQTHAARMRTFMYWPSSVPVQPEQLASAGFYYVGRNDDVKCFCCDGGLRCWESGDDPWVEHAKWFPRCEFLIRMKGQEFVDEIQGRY
Description: C. cIAP1-BIR3SMAC Peptide Fluorescence Polarization Assay (FPA)
Assays were performed in black, round-bottom, 96-well plates. The final assay volume was 30 μL prepared from additions of N-His-Tb-BIR3(262-352, cIAP1), fluoresceinated modified SMAC peptide, and test compounds in assay buffer consisting of 20 mM Sodium Phosphate, 1 mM EDTA, 50 mM NaCl, and 0.05% Pluronic F68. The reaction was incubated at room temperature for 60 minutes and fluorescence polarization of the reaction was detected on the LJL Plate Reader. […] The final concentration of reagents in the assay was 36.1 nM N-His-Tb-BIR3(262-352, cIAP1), 1.4 nM fluoresceinated modified SMAC peptide, and 1% DMSO. […] Compounds were dissolved at 10 mM in dimethylsulfoxide (DMSO) and evaluated at eight concentrations. IC50 values were derived by non-linear regression analysis.

His-BIR3 (241-356, XIAP) = target: T2, His-BIR3 (241-356, XIAP) (Homo sapiens, UniProt P98170); assay: XIAP-BIR3/SMAC Homogeneous Time Resolved Fluorescence (HTRF) Assay; conditions: Table 4
T2 construct: additions of His-BIR3 (241-356, XIAP), fluorescein labeled SMAC peptide
T2 sequence (P98170 241-356): as the sequence (P98170 241-356) above

[4] = target: T3, His-BIR2-3 (125-356, C202A/C213G, XIAP) (Homo sapiens, UniProt P98170, C202A/C213G); assay: XIAP-BIR2-3 Dimeric SMAC Peptide Homogeneous Time Resolved Fluorescence (HTRF) Assay; conditions: XIAP BIR2-3, HTRF, Table 4
T3 construct: additions of His-BIR2-3 (125-356, C202A/C213G, XIAP), fluorescein labeled dimeric SMAC peptide
T3 sequence (P98170 125-356 C202A/C213G): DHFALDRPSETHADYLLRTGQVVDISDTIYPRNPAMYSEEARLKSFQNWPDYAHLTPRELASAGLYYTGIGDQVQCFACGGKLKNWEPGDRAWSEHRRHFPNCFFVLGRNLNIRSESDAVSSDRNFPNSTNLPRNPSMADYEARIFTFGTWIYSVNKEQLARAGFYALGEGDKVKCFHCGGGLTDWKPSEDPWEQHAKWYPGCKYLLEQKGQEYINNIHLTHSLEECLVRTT

[5] = XIAP BIR2, AlphaScreen, Table 2, read-out: BIR2 IC50
[6] = XIAP BIR2, Alphascreen, Table 4, read-out: BIR2 Alpha Screen IC50

T1 sequence (P98170 124-240 C202A/C213G): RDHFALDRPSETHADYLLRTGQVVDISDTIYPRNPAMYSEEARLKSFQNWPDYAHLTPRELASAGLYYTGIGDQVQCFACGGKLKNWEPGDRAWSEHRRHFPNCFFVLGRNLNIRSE

| SMILES | IC50 [1, 5] [nM] | IC50 [2] [nM] | IC50 [3] [nM] | IC50 [1, 6] [nM] | IC50 (His-BIR3 (241-356, XIAP)) [nM] | IC50 [4] [nM] | IC50 ([2]; XIAP BIR3, FPA, Table 2, read-out: BIR3 IC50) [nM] |
| --- | --- | --- | --- | --- | --- | --- | --- |
| CN[C@@H](C)C(=O)N[C@H](C(=O)N1C[C@@H]2C[C@H]1C(=O)N[C@@H](Cc1ccc3ccccc3c1)C(=O)N[C@H](C(=O)O)Cc1ccc(cc1)OCc1cn(nn1)[C@H]1C[C@@H](C(=O)N[C@@H](Cc3ccc4ccccc4c3)C(=O)N[C@H](C(=O)O)Cc3ccc(cc3)OCc3cn2nn3)N(C(=O)[C@@H](NC(=O)[C@H](C)NC)C(C)C)C1)C(C)C [Compound 110] | < 2000 | < 50 | < 50 | – | – | – | – |
| CN[C@@H](C)C(=O)N[C@H](C(=O)N1C[C@@H]2C[C@H]1C(=O)N[C@@H](Cc1ccccc1)C(=O)N[C@H](C(=O)O)Cc1ccc(cc1)OCCCn1cc(nn1)-c1ccc(cc1)-c1cn(nn1)[C@H]1C[C@@H](C(=O)N[C@@H](Cc3ccccc3)C(=O)N[C@H](C(=O)O)Cc3ccc(cc3)OCCCn3cc(nn3)-c3ccc(cc3)-c3cn2nn3)N(C(=O)[C@@H](NC(=O)[C@H](C)NC)C(C)C)C1)C(C)C [Compound 137] | < 2000 | < 50 | < 50 | – | – | – | – |
| CN[C@@H](C)C(=O)N[C@H](C(=O)N1C[C@@H]2C[C@H]1C(=O)N[C@@H](Cc1cccc3ccccc13)C(=O)N[C@H](C(=O)O)Cc1ccc(cc1)COc1cn(nn1)[C@H]1C[C@@H](C(=O)N[C@@H](Cc3cccc4ccccc34)C(=O)N[C@H](C(=O)O)Cc3ccc(cc3)OCc3cn2nn3)N(C(=O)[C@@H](NC(=O)[C@H](C)NC)C(C)C)C1)C(C)C [Compound 111] | < 2000 | < 50 | < 50 | – | – | – | – |
| CN[C@@H](C)C(=O)N[C@H](C(=O)N1C[C@@H]2C[C@H]1C(=O)N[C@@H](Cc1ccc3ccccc3c1)C(=O)N[C@H](C(=O)NS(=O)(=O)C1CC1)Cc1ccc(cc1)OCc1cn(nn1)[C@H]1C[C@@H](C(=O)N[C@@H](Cc3ccc4ccccc4c3)C(=O)N[C@H](C(=O)NS(=O)(=O)C3CC3)Cc3ccc(cc3)OCc3cn2nn3)N(C(=O)[C@@H](NC(=O)[C@H](C)NC)C(C)(C)C)C1)C(C)(C)C [Compound 148] | – | < 50 | – | < 2000 | < 10 | ≤ 1 | – |
| CN[C@@H](C)C(=O)N[C@H](C(=O)N1C[C@@H]2C[C@H]1C(=O)N[C@@H](Cc1cccc(C(F)(F)F)c1)C(=O)N[C@H](C(=O)O)Cc1ccc(cc1)OCc1cn(nn1)[C@H]1C[C@@H](C(=O)N[C@@H](Cc3cccc(C(F)(F)F)c3)C(=O)N[C@H](C(=O)O)Cc3ccc(cc3)OCc3cn2nn3)N(C(=O)[C@@H](NC(=O)[C@H](C)NC)C(C)(C)C)C1)C(C)(C)C [Compound 129] | < 2000 | < 50 | – | – | – | – | – |
| CN[C@@H](C)C(=O)N[C@H](C(=O)N1C[C@@H]2C[C@H]1C(=O)N[C@@H](Cc1ccccc1)C(=O)N[C@H](C(=O)NCCN(C)C)Cc1ccc(cc1)OCc1cn(nn1)[C@H]1C[C@@H](C(=O)N[C@@H](Cc3ccccc3)C(=O)N[C@H](C(=O)NCCN(C)C)Cc3ccc(cc3)OCc3cn2nn3)N(C(=O)[C@@H](NC(=O)[C@H](C)NC)C(C)C)C1)C(C)C [Compound 106] | > 12000 | 50 to 100 | – | – | – | – | – |
| CN[C@@H](C)C(=O)N[C@H](C(=O)N1C[C@@H]2C[C@H]1C(=O)N[C@@H](Cc1ccc(C(F)(F)F)cc1)C(=O)N[C@H](C(=O)O)Cc1ccc(cc1)COc1cn(nn1)[C@H]1C[C@@H](C(=O)N[C@@H](Cc3ccc(C(F)(F)F)cc3)C(=O)N[C@H](C(=O)O)Cc3ccc(cc3)OCc3cn2nn3)N(C(=O)[C@@H](NC(=O)[C@H](C)NC)C(C)C)C1)C(C)C [Compound 113] | > 12000 | 50 to 100 | – | – | – | – | – |
| CN[C@@H](C)C(=O)N[C@H](C(=O)N1C[C@@H]2C[C@H]1C(=O)N[C@@H](CC1CCCCC1)C(=O)N[C@H](C(=O)O)Cc1ccc(cc1)OCc1cn(nn1)[C@H]1C[C@@H](C(=O)N[C@@H](CC3CCCCC3)C(=O)N[C@H](C(=O)O)Cc3ccc(cc3)OCc3cn2nn3)N(C(=O)[C@@H](NC(=O)[C@H](C)NC)C(C)C)C1)C(C)C [Compound 122] | 2000 to 12000 | > 100 | – | – | – | – | – |
| CN[C@@H](C)C(=O)N[C@H](C(=O)N1CCc2cn(nn2)CCCOc2ccc(cc2)C[C@@H](C(=O)O)NC(=O)[C@H](Cc2ccccc2)NC(=O)CN(C(=O)[C@@H](NC(=O)[C@H](C)NC)C(C)C)CCc2cn(nn2)CCCOc2ccc(cc2)C[C@@H](C(=O)O)NC(=O)[C@H](Cc2ccccc2)NC(=O)C1)C(C)C [Compound 103] | 2000 to 12000 | – | – | – | – | – | > 100 |
| CN[C@@H](C)C(=O)N[C@H](C(=O)N1C[C@@H]2C[C@H]1C(=O)N[C@@H](Cc1ccc3ccccc3c1)C(=O)N[C@H](C(=O)O)Cc1ccc(cc1)OCc1cn(nn1)[C@H]1C[C@@H](C(=O)N[C@@H](Cc3ccc4ccccc4c3)C(=O)N[C@H](C(=O)NS(=O)(=O)C3CC3)Cc3ccc(cc3)OCc3cn2nn3)N(C(=O)[C@@H](NC(=O)[C@H](C)NC)C(C)(C)C)C1)C(C)(C)C [Compound 147] | – | < 50 | – | < 2000 | < 10 | 1 to 10 | – |
